Among the data in ChEMBL document CHEMBL1145657, “Chemistry of Acronycine I. Carbon- 13 NMR Studies of Acronycine and Related Compounds” (J Nat Prod, 1983) are Activity values, retold here.

Active and inactive are the calls of the source. The calls are words filed in the database; no cut-off is given here.

This test deals with KB. Put plainly: Cytotoxicity against human KB cells. In kind it is functional, cell-based.

Regarding `Cn1c2ccccc2c(=O)c2c(O)cc3c(c21)CCC(C)(C)O3`, the outcome was inactive.
As for `Cn1c2ccccc2c(=O)c2c(O)cc3c(c21)C=CC(C)(C)O3`, the entry is “inactive”.
